According to US20100298141A1, “SUBSTITUTED PYRIDINE N-OXIDE HERBICIDES” (E. I. DU PONT DE NEMOURS AND COMPANY, priority 2007, published 2010):

What was measured:
Goosegrass = assay: Test C pre-/postemergence test; type: in vivo, Eleusin indica; details: Preemergence; for Goosegrass plant response rating: 62 g ai/ha, scale 0 to 100; for Plant response rating, Goosegrass: 31 g ai/ha, scale 0 to 100 (0 no effect, 100 complete control); for Plant response rating (0 to 100), Goosegrass: 250 g ai/ha
In short: (§1)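 Seeds were planted and treated preemergence with test chemical in a non-phytotoxic solvent mixture containing surfactant. Postemergence applications of the same formulation went onto plants 2 to 18 cm tall (1- to 4-leaf stage). A dash marks no test result.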

Italian ryegrass = assay: Test C pre-/postemergence test; type: in vivo, Lolium multiflorum; details: Preemergence; for Ryegrass, Italian plant response rating: 62 g ai/ha, scale 0 to 100; for Plant response rating, Ryegrass, Italian: 31 g ai/ha, scale 0 to 100 (0 no effect, 100 complete control)
In short: as §1

yellow nutsedge = assay: Test C pre-/postemergence test; type: in vivo, Cyperus esculentus; details: Preemergence; for Nutsedge, Yellow plant response rating: 62 g ai/ha, scale 0 to 100; for Plant response rating, Nutsedge, Yellow: 31 g ai/ha, scale 0 to 100 (0 no effect, 100 complete control)
In short: as §1

soybean = assay: Test C pre-/postemergence test; type: in vivo, Glycine max; details: Preemergence; for Soybean plant response rating: 62 g ai/ha, scale 0 to 100
In short: as §1

crabgrass [1] = assay: Test A pre-/postemergence greenhouse test; type: in vivo, Digitaria sanguinalis; details: for Crabgrass, Large plant response rating: 0 to 100 scale; for Plant response rating, Crabgrass, Large: 0 to 100 scale where 0 is no effect and 100 is complete control
In short: (§2)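 Visual injury ratings against untreated controls, taken roughly ten days after treatment in greenhouse. Plants were sprayed postemergence at one- to two-leaf stage (2–10 cm tall); at the same time, seeded loam/sand soil received a directed preemergence spray. Formulation: non-phytotoxic solvent mixture with surfactant.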

bermudagrass = assay: Test C pre-/postemergence test; type: in vivo, Cynodon dactylon; details: for Plant response rating, Bermudagrass: 31 g ai/ha; for Plant response rating (0 to 100), Bermudagrass: 250 g ai/ha
In short: as §1

crabgrass [2] = assay: Test C pre-/postemergence test; type: in vivo, Digitaria sanguinalis; details: Preemergence; for Crabgrass, Large plant response rating: 62 g ai/ha, scale 0 to 100; for Plant response rating, Crabgrass, Large: 31 g ai/ha, scale 0 to 100 (0 no effect, 100 complete control); for Plant response rating (0 to 100), Crabgrass, Large: 250 g ai/ha
In short: as §1

velvetleaf = assay: Test A pre-/postemergence greenhouse test; type: in vivo, Abutilon theophrasti; details: for Velvetleaf plant response rating: 0 to 100 scale; for Plant response rating, Velvetleaf: 0 to 100 scale where 0 is no effect and 100 is complete control
In short: as §2

barnyardgrass [3] = assay: Test A pre-/postemergence greenhouse test; type: in vivo, Echinochloa crus-galli; details: for Barnyardgrass plant response rating: 0 to 100 scale; for Plant response rating, Barnyardgrass: 0 to 100 scale where 0 is no effect and 100 is complete control
In short: as §2

green foxtail = assay: Test C pre-/postemergence test; type: in vivo, Setaria viridis; details: Preemergence; for Foxtail, Green plant response rating: 62 g ai/ha, scale 0 to 100; for Plant response rating, Foxtail, Green: 31 g ai/ha, scale 0 to 100 (0 no effect, 100 complete control); for Plant response rating (0 to 100), Foxtail, Green: 250 g ai/ha
In short: as §1

pigweed = assay: Test C pre-/postemergence test; type: in vivo, Amaranthus retroflexus; details: Preemergence; for Pigweed plant response rating: 62 g ai/ha, scale 0 to 100; for Plant response rating, Pigweed: 31 g ai/ha, scale 0 to 100 (0 no effect, 100 complete control)
In short: as §1

barnyardgrass [4] = assay: Test C flooded paddy test; type: in vivo, Echinochloa crus-galli; details: Flood
In short: (§3)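 In-water treatment: compound dosed into 3 cm flood over soil, water level unchanged throughout. Controls run alongside; visual assessment at day 13–15.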

duck salad = assay: Test C flooded paddy test; type: in vivo, Heteranthera limosa; details: Flood
In short: as §3

umbrella sedge = assay: Test C flooded paddy test; type: in vivo, Cyperus difformis; details: Flood
In short: as §3

johnsongrass = assay: Test C pre-/postemergence test; type: in vivo, Sorghum halepense; details: Preemergence; for Johnsongrass plant response rating: 62 g ai/ha, scale 0 to 100; for Plant response rating (0 to 100), Johnsongrass: 250 g ai/ha
In short: as §1

corn [5] = assay: Test C pre-/postemergence test; type: in vivo, Zea mays; details: for Plant response rating, Corn: 31 g ai/ha, scale 0 to 100 (0 no effect, 100 complete control); for Plant response rating (0 to 100), Corn: 250 g ai/ha
In short: as §1

corn [6] = assay: Test A pre-/postemergence greenhouse test; type: in vivo, Zea mays; details: for Corn plant response rating: 0 to 100 scale; for Plant response rating, Corn: 0 to 100 scale where 0 is no effect and 100 is complete control
In short: as §2

[7] = 31 g ai/ha, scale 0 to 100 (0 no effect, 100 complete control)
[8] = Postemergence, 125 g ai/ha, 0 is no effect, 100 is complete control
[9] = Postemergence, 500 g ai/ha, 0 is no effect, 100 is complete control
[10] = Preemergence, 125 g ai/ha, 0 no effect, 100 complete control
[11] = 62 g ai/ha, Preemergence, scale 0 to 100 (0 no effect, 100 complete control)
[12] = Preemergence, scale 0 to 100 (0 no effect, 100 complete control)
[13] = preemergence, 125 g ai/ha, scale 0 (no effect) to 100 (complete control)
[14] = 62 g ai/ha, scale 0 to 100, 0 no effect, 100 complete control, 13 to 15 days
[15] = 125 g ai/ha, scale 0 to 100, 0 no effect, 100 complete control, 13 to 15 days
[16] = 250 g ai/ha, scale 0 to 100 (0 no effect, 100 complete control)
[17] = 250 g ai/ha, scale 0 to 100, 0 no effect, 100 complete control, 13 to 15 days
[18] = 62 g ai/ha, Preemergence, scale 0 to 100

## Cc1cc[n+]([O-])c(S(=O)(=O)C(Cl)c2c(C(F)(F)F)nn(C)c2Cl)c1 (racemic) [Compound 22]
Goosegrass
  Goosegrass plant response rating: 100
  Plant response rating, Goosegrass: 100
  Plant response rating (0 to 100), Goosegrass: 100
Italian ryegrass
  Ryegrass, Italian plant response rating: 40
  Plant response rating, Ryegrass, Italian: 0
Yellow nutsedge
  Nutsedge, Yellow plant response rating: 60
  Plant response rating, Nutsedge, Yellow: 50
soybean
  Soybean plant response rating: 0
soybean; [7]
  Plant response rating, Soybean: 0
Crabgrass [1]; [8]
  Crabgrass, Large plant response rating: 40
Crabgrass [1]; [9]
  Crabgrass, Large plant response rating: 80
Crabgrass [1]; [10]
  Crabgrass, Large plant response rating: 90
Crabgrass [1]; Preemergence, 500 g ai/ha
  Plant response rating, Crabgrass, Large: 90
bermudagrass; [11]
  Bermudagrass plant response rating: 100
bermudagrass; [12]
  Plant response rating, Bermudagrass: 70
bermudagrass; Preemergence
  Plant response rating (0 to 100), Bermudagrass: 100
bermudagrass; [13]
  Bermudagrass plant response rating: 100
Crabgrass [2]
  Crabgrass, Large plant response rating: 100
  Plant response rating, Crabgrass, Large: 98
  Plant response rating (0 to 100), Crabgrass, Large: 100
velvetleaf; [8]
  Velvetleaf plant response rating: 0
velvetleaf; [9]
  Velvetleaf plant response rating: 40
velvetleaf; [10]
  Velvetleaf plant response rating: 10
velvetleaf; Preemergence, 500 g ai/ha
  Plant response rating, Velvetleaf: 60
Barnyardgrass [3]; [8]
  Barnyardgrass plant response rating: 40
Barnyardgrass [3]; [9]
  Barnyardgrass plant response rating: 80
Barnyardgrass [3]; [10]
  Barnyardgrass plant response rating: 90
Barnyardgrass [3]; Preemergence, 500 g ai/ha
  Plant response rating, Barnyardgrass: 100
Green foxtail
  Foxtail, Green plant response rating: 100
  Plant response rating, Foxtail, Green: 100
  Plant response rating (0 to 100), Foxtail, Green: 100
pigweed
  Pigweed plant response rating: 100
  Plant response rating, Pigweed: 100
Barnyardgrass [4]; [7]
  Plant response rating, Barnyardgrass: 10
Barnyardgrass [4]; [14]
  Plant response rating, Barnyardgrass: 20
Barnyardgrass [4]; [15]
  Plant response rating, Barnyardgrass: 80
Barnyardgrass [4]; [16]
  Plant response rating, Barnyardgrass: 85
Duck salad; [7]
  Plant response rating, Ducksalad: 20
Duck salad; [14]
  Plant response rating, Ducksalad: 80
Duck salad; [15]
  Plant response rating, Ducksalad: 85
Duck salad; [16]
  Plant response rating, Ducksalad: 90
Umbrella sedge; [7]
  Plant response rating, Sedge, Umbrella: 60
Umbrella sedge; [14]
  Plant response rating, Sedge, Umbrella: 85
Umbrella sedge; [15]
  Plant response rating, Sedge, Umbrella: 95
Umbrella sedge; [17]
  Plant response rating, Sedge, Umbrella: 95
johnsongrass
  Johnsongrass plant response rating: 10
  Plant response rating (0 to 100), Johnsongrass: 70
Corn [5]; [18]
  Corn plant response rating: 20
Corn [5]; Preemergence
  Plant response rating, Corn: 0
  Plant response rating (0 to 100), Corn: 100
Corn [5]; [13]
  Corn plant response rating: 30
Corn [6]; [8]
  Corn plant response rating: 0
Corn [6]; [9]
  Corn plant response rating: 30
Corn [6]; [10]
  Corn plant response rating: 0
Corn [6]; Preemergence, 500 g ai/ha
  Plant response rating, Corn: 20

## Cn1nc(C(F)(F)F)c(CS(=O)(=O)c2cccc[n+]2[O-])c1OCC(F)(F)F [Compound 29]
Goosegrass
  Goosegrass plant response rating: 100
  Plant response rating, Goosegrass: 100
  Plant response rating (0 to 100), Goosegrass: 100
Italian ryegrass
  Ryegrass, Italian plant response rating: 85
  Plant response rating, Ryegrass, Italian: 60
Yellow nutsedge
  Nutsedge, Yellow plant response rating: 100
  Plant response rating, Nutsedge, Yellow: 80
soybean
  Soybean plant response rating: 70
Crabgrass [1]; [8]
  Crabgrass, Large plant response rating: 80
Crabgrass [1]; [9]
  Crabgrass, Large plant response rating: 90
Crabgrass [1]; [10]
  Crabgrass, Large plant response rating: 90
Crabgrass [1]; Preemergence, 500 g ai/ha
  Plant response rating, Crabgrass, Large: 100
bermudagrass; [11]
  Bermudagrass plant response rating: 100
bermudagrass; [12]
  Plant response rating, Bermudagrass: 100
bermudagrass; Preemergence
  Plant response rating (0 to 100), Bermudagrass: 100
bermudagrass; [13]
  Bermudagrass plant response rating: 100
Crabgrass [2]
  Crabgrass, Large plant response rating: 100
  Plant response rating, Crabgrass, Large: 100
  Plant response rating (0 to 100), Crabgrass, Large: 100
velvetleaf; [8]
  Velvetleaf plant response rating: 40
velvetleaf; [9]
  Velvetleaf plant response rating: 70
velvetleaf; [10]
  Velvetleaf plant response rating: 40
velvetleaf; Preemergence, 500 g ai/ha
  Plant response rating, Velvetleaf: 100
Barnyardgrass [3]; [8]
  Barnyardgrass plant response rating: 80
Barnyardgrass [3]; [9]
  Barnyardgrass plant response rating: 90
Barnyardgrass [3]; [10]
  Barnyardgrass plant response rating: 100
Barnyardgrass [3]; Preemergence, 500 g ai/ha
  Plant response rating, Barnyardgrass: 100
Green foxtail
  Foxtail, Green plant response rating: 100
  Plant response rating, Foxtail, Green: 85
  Plant response rating (0 to 100), Foxtail, Green: 100
pigweed
  Pigweed plant response rating: 100
  Plant response rating, Pigweed: 100
Barnyardgrass [4]; [7]
  Plant response rating, Barnyardgrass: 0
Barnyardgrass [4]; [14]
  Plant response rating, Barnyardgrass: 0
Barnyardgrass [4]; [15]
  Plant response rating, Barnyardgrass: 40
Barnyardgrass [4]; [16]
  Plant response rating, Barnyardgrass: 80
Duck salad; [7]
  Plant response rating, Ducksalad: 70
Duck salad; [14]
  Plant response rating, Ducksalad: 80
Duck salad; [16]
  Plant response rating, Ducksalad: 90
Umbrella sedge; [7]
  Plant response rating, Sedge, Umbrella: 80
Umbrella sedge; [14]
  Plant response rating, Sedge, Umbrella: 90
Umbrella sedge; [15]
  Plant response rating, Sedge, Umbrella: 90
Umbrella sedge; [17]
  Plant response rating, Sedge, Umbrella: 95
johnsongrass
  Johnsongrass plant response rating: 100
  Plant response rating (0 to 100), Johnsongrass: 100
johnsongrass; [7]
  Plant response rating, Johnsongrass: 100
Corn [5]; [18]
  Corn plant response rating: 80
Corn [5]; Preemergence
  Plant response rating, Corn: 0
  Plant response rating (0 to 100), Corn: 98
Corn [5]; [13]
  Corn plant response rating: 98
Corn [6]; [8]
  Corn plant response rating: 30
Corn [6]; [9]
  Corn plant response rating: 60
Corn [6]; [10]
  Corn plant response rating: 0
Corn [6]; Preemergence, 500 g ai/ha
  Plant response rating, Corn: 70
